# Measurements published in patent US20260077051A1, “COMPOUNDS FOR THE DEGRADATION OF EGFR KINASE” (BeOne Medicines I GmbH, priority 2023, published 2026).
# Legend:
# [1] = target: T1, EGFR L858R (BaF3-L858R cells) (Homo sapiens, UniProt P00533, L858R); experiment: EGFR degradation in BaF3-L858R cells (HTRF assay); format: cell-based; conditions: 16 h treatment; for DC50: IC50(DC50) of EGFR degradation; for Dmax: maximum percentage of inhibition (degradation)
# T1 construct: host or cells: BaF3
# Experimental: BaF3-L858R (abbv. L858R) cell were purchased from Kangyuan Bochuang Biotechnology (Beijing) Co., Ltd.
# (§1) H1975-#8 and BaF3-L858R cells are treated with compounds diluted in 0.1% DMSO cell culture medium on day 2, incubate for 16 h, 37° C., 5% CO2. the final concentration of compounds in all assay is start with 10 uM, 5-fold dilution, total 8 doses were included.
# (§2) After 16 h treatment, for H1975-#8 cells, add 100 ul HTRF 1× lysis buffer to each well; for BaF3-L858R cells, add 20 μl 4× lysis buffer to each well; seal the plate and incubate 1 hour at room temperature on a plate shaker; Once the cells are lysed, 16 μL of cell lysate are transferred to a PE 384-well HTRF detection plate; 4 μL of pre-mixed HTRF antibodies are added to each well; Cover the plate with a plate sealer, spin 1000 rpm for 1 min, Incubate overnight at room temperature; Read on BMG PheraStar with HTRF protocol (337 nm-665 nm-620 nm).
# (§3) The inhibition (degradation) percentage of the compound was calculated by the following equation:
# (§4) High control=Cell group with added DMSO and without compound, indicating microplate readings without EGFR degradation;
# (§5) Dmax is the maximum percentage of inhibition (degradation).
# (§6) The IC50(DC50) value of a compound can be obtained by fitting the following equation
# (§7) Wherein, X and Y are known values, and IC50, Hillslope, Top and Bottom are the parameters obtained by fitting with software. Y is the inhibition percentage (calculated from the equation), X is the concentration of the compound; IC50 is the concentration of the compound when the 50% inhibition is reached. The smaller the IC50 value is, the stronger the inhibitory ability of the compound is. Vice versa, the higher the IC50 value is, the weaker the ability the inhibitory ability of the compound is; Hillslope represents the slope of the fitted curve, generally around 1*; Bottom represents the minimum value of the curve obtained by data fitting, which is generally 0%±20%; Top represents the maximum value of the curve obtained by data fitting, which is generally 100%±20%. The experimental data were fitted by calculating and analyzing with Dotmatics data analysis software.
# [2] = target: T2, EGFR-L858R/C797S (H1975-clone #8 cells) (Homo sapiens, UniProt P00533, C797S/L858R); experiment: EGFR degradation in H1975-clone#8 (L858R/C797S) cells (HTRF assay); format: cell-based; conditions: 16 h treatment; for DC50: IC50(DC50) of EGFR degradation; for Dmax: maximum percentage of inhibition (degradation)
# T2 construct: expressed in transfected cells; host or cells: H1975 (lentiviral transduction, endogenous EGFR knocked out, single clone #8)
# Experimental: H1975-clone #8 (L858R/C797S): EGFR-L858R/C797S were stably expressed in H1975 cell lines by lentivirus-mediated over-expression, respectively. The EGFR over-expressed cells then underwent knockout, in which the EGFR targeting sgRNA was designed to only target the endogenous EGFR copies and preserve the exogenous EGFR copies. Followed by the knockout, the edited H1975 cells were seeded in 96 well plates at the concentration of […], cultured for about 2 weeks to allow single clones formation. The formed clones were screened by DNA sequencing and whole exon sequencing analysis for the desired edition. H1975-clone #8 were finally confirmed as homozygous L858R/C797S EGFR clones.
# as §1, §2, §3, §4, §5, §6, §7
# T1 sequence (P00533 25-1210 L858R): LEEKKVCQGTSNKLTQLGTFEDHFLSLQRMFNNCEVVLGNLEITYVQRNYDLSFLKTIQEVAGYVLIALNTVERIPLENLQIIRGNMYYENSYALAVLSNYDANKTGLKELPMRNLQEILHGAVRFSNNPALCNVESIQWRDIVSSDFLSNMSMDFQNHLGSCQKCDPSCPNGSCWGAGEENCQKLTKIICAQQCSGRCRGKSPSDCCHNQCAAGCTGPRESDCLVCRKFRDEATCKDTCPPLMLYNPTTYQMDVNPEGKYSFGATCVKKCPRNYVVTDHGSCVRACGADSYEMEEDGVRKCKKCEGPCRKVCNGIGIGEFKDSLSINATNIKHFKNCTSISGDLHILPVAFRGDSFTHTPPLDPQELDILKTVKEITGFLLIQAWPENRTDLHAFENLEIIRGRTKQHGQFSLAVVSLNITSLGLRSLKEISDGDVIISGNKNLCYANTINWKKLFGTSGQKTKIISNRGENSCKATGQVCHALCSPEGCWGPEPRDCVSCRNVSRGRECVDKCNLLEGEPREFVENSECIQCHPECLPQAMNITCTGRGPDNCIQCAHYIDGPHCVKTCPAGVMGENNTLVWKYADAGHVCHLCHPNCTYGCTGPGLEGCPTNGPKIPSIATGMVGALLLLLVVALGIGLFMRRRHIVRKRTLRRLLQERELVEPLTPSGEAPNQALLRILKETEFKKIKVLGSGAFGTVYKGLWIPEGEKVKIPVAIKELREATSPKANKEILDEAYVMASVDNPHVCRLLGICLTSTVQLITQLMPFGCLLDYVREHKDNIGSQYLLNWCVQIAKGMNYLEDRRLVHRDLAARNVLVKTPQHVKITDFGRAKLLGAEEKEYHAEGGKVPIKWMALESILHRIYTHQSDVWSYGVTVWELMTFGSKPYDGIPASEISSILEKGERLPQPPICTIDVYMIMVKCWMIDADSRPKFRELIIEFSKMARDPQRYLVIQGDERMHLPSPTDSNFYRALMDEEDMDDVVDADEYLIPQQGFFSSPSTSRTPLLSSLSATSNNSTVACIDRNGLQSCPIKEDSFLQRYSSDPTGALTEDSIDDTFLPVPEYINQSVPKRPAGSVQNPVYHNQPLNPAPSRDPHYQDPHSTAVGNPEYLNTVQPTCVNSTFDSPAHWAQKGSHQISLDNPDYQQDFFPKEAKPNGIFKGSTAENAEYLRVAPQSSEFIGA
# T2 sequence (P00533 25-1210 C797S/L858R): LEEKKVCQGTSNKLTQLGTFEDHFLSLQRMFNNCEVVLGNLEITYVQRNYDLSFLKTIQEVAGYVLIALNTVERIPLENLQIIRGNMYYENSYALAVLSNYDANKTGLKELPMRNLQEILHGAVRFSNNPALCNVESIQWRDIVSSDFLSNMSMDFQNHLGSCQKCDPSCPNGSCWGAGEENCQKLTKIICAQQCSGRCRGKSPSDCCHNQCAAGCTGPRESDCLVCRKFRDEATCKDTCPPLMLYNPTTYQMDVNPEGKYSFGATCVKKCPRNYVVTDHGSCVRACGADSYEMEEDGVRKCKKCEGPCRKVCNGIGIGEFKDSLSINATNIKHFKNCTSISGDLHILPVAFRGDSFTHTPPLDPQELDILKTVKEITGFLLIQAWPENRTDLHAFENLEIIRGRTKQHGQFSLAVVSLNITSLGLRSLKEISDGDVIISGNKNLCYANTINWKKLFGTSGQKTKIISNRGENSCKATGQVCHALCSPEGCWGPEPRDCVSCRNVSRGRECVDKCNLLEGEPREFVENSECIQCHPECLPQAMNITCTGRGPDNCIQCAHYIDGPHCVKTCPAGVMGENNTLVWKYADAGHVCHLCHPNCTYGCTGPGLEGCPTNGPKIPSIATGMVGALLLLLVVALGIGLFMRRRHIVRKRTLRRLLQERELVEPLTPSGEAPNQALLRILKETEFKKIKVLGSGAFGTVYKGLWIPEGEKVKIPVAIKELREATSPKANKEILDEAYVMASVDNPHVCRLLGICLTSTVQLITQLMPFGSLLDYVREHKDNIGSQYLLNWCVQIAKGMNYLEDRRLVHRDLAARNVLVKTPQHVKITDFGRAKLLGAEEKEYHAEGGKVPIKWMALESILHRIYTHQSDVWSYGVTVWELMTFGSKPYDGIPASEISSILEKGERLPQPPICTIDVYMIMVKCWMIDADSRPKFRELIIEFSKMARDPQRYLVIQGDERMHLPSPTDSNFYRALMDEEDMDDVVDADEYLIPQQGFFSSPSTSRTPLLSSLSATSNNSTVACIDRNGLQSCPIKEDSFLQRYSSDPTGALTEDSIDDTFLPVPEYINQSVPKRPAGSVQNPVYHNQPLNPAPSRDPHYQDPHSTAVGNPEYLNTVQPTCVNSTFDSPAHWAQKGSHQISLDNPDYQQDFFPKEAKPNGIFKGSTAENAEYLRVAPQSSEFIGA
SMILES,DC50 [1],Dmax [1],DC50 [2],Dmax [2]
"Cc1cc2cc(n1)-c1cnn(C)c1OCC[C@H]1C[C@@H]1CN1/C(=N/C2=O)Nc2ccc(N3CCC(N4CC5CCC4CN5c4ccc(C5CCC(=O)NC5=O)nc4C)CC3)cc21 (some centres unmarked) [Example 5, 3-(5-(5-(1-((7^1S,7^2R,E)-1^1,2^6-dimethyl-3-oxo-5^2,5^3-dihydro-1^1H,5^1H-10-oxa-4-aza-5 (2,1)-benzo[d]imidazola-2 (2,4)-pyridina-1 (4,5)-pyrazola-7 (1,2)-cyclopropanacyclodecaphane-5^6-yl)piperidin-4-yl)-2,5-diazabicyclo[2.2.2]octan-2-yl)-6-methylpyridin-2-yl)piperidine-2,6-dione]",72.2 nM,70.3%,–,–
"CCc1nc(C2CCC(=O)NC2=O)ccc1N1CC[C@H](N2CCN(c3ccc4c(c3)N3C[C@H]5C[C@@H]5CCOc5c(cnn5C)-c5cc(cc(C)n5)C(=O)/N=C/3N4)CC2)[C@H](F)C1 (stereo partly drawn) [Example 31, 3-(5-((3R,4S)-4-(4-((7^1S,7^2R,E)-1^1,2^6-dimethyl-3-oxo-5^2,5^3-dihydro-1^1H,5^1H-10-oxa-4-aza-5 (2,1)-benzo[d]imidazola-2 (2,4)-pyridina-1 (4,5)-pyrazola-7 (1,2)-cyclopropanacyclodecaphane-5^6-yl)piperazin-1-yl)-3-fluoropiperidin-1-yl)-6-ethylpyridin-2-yl)piperidine-2,6-dione]",4.61 nM,89.5%,9.56 nM,69.3%
"Cc1cc2cc(n1)-c1cnn(C)c1OCC[C@]1(C)C[C@H]1CN1/C(=N/C2=O)Nc2ccc(N3CCN([C@H]4CCN(c5cc(F)c(C6CCC(=O)NC6=O)nc5C)C[C@H]4F)CC3)cc21 (stereo partly drawn) [Example 61, 3-(3-fluoro-5-((3R,4S)-3-fluoro-4-(4-((7^1R,7^2S,E)-1^1,2^6,7^2-trimethyl-3-oxo-5^2,5^3-dihydro-1^1H,5^1H-10-oxa-4-aza-5 (2,1)-benzo[d]imidazola-2 (2,4)-pyridina-1 (4,5)-pyrazola-7 (1,2)-cyclopropanacyclodecaphane-56-yl)piperazin-1-yl)piperidin-1-yl)-6-methylpyridin-2-yl)piperidine-2,6-dione]",0.99 nM,91.8%,1.29 nM,80.8%
"Cc1cc2cc(n1)-c1cnn(C)c1OCC[C@H]1C[C@@H]1CN1/C(=N/C2=O)Nc2ccc(N3CC4CCC3CN4C3CN(C4CCN(c5c(C)cc(C6CCC(=O)NC6=O)nc5C)CC4)C3)cc21 (some centres unmarked) [Example 28, 3-(5-(4-(3-(5-((7^1S,7^2R,E)-1^1,2^6-dimethyl-3-oxo-5^2,5^3-dihydro-1^1H,5^1H-10-oxa-4-aza-5 (2,1)-benzo[d]imidazola-2 (2,4)-pyridina-1 (4,5)-pyrazola-7 (1,2)-cyclopropanacyclodecaphane-5^6-yl)-2,5-diazabicyclo[2.2.2]octan-2-yl)azetidin-1-yl)piperidin-1-yl)-4,6-dimethylpyridin-2-yl)piperidine-2,6-dione]",6.31 nM,78.2%,2.71 nM,49%
"Cc1cc2cc(n1)-c1cnn(C)c1OCC[C@H]1C[C@@H]1CN1/C(=N/C2=O)Nc2ccc(N3CCN(CCc4c(C)cc(C5CCC(=O)NC5=O)nc4C)CC3)cc21 (some centres unmarked) [Example 21, 3-(5-(2-(4-((7^1S,7^2R,E)-1^1,2^6-dimethyl-3-oxo-5^2,5^3-dihydro-1^1H,5^1H-10-oxa-4-aza-5 (2,1)-benzo[d]imidazola-2 (2,4)-pyridina-1 (4,5)-pyrazola-7 (1,2)-cyclopropanacyclodecaphane-5^6-yl)piperazin-1-yl)ethyl)-4,6-dimethylpyridin-2-yl)piperidine-2,6-dione]",1.65 nM,82.8%,19.3 nM,40.2%
"Cc1cc2cc(n1)-c1cnn(C)c1OCC[C@H]1C[C@@H]1CN1/C(=N/C2=O)Nc2ccc(N3CCN(C4CCN(c5cc(F)c(C6CCC(=O)NC6=O)nc5C)CC4)CC3)cc21 (some centres unmarked) [Example 16, 3-(5-(4-(4-((7^1S,7^2R,E)-1^1,2^6-dimethyl-3-oxo-5^2,5^3-dihydro-1^1H,5^1H-10-oxa-4-aza-5 (2,1)-benzo[d]imidazola-2 (2,4)-pyridina-1 (4,5)-pyrazola-7 (1,2)-cyclopropanacyclodecaphane-5^6-yl)piperazin-1-yl)piperidin-1-yl)-3-fluoro-6-methylpyridin-2-yl)piperidine-2,6-dione]",18 nM,76.4%,7.82 nM,73.3%
"Cc1cc2cc(n1)-c1cnn(C)c1OCC[C@H]1C[C@@H]1CN1/C(=N/C2=O)Nc2ccc(N3CCN(C[C@@H]4CCN(c5ccc(C6CCC(=O)NC6=O)nc5C)C4)CC3)cc21 (stereo partly drawn) [Example 9, 3-(5-((S)-3-((4-((7^1S,7^2R,E)-1^1,2^6-dimethyl-3-oxo-5^2,5^3-dihydro-1^1H,5^1H-10-oxa-4-aza-5 (2,1)-benzo[d]imidazola-2 (2,4)-pyridina-1 (4,5)-pyrazola-7 (1,2)-cyclopropanacyclodecaphane-5^6-yl)piperazin-1-yl)methyl)pyrrolidin-1-yl)-6-methylpyridin-2-yl)piperidine-2,6-dione]",85.4 nM,74.9%,–,–
"Cc1cc2cc(n1)-c1cnn(C)c1OCC[C@H]1C[C@@H]1CN1/C(=N/C2=O)Nc2ccc(NC3CN(C4CCN(c5cnc(C6CCC(=O)NC6=O)cc5C)CC4)C3)cc21 (some centres unmarked) [Example 1, 3-(5-(4-(3-(((7^1S,7^2R,E)-1^1,2^6-dimethyl-3-oxo-5^2,5^3-dihydro-1^1H,5^1H-10-oxa-4-aza-5 (2,1)-benzo[d]imidazola-2 (2,4)-pyridina-1 (4,5)-pyrazola-7 (1,2)-cyclopropanacyclodecaphane-5^6-yl)amino)azetidin-1-yl)piperidin-1-yl)-4-methylpyridin-2-yl)piperidine-2,6-dione]",15.7 nM,68.4%,–,–
"Cc1cc2cc(n1)-c1cnn(C)c1OCC[C@H]1C[C@@H]1CN1/C(=N/C2=O)Nc2ccc(N3CCC(N4CC5CCC(C4)N5c4ccc(C5CCC(=O)NC5=O)nc4C)CC3)cc21 (some centres unmarked) [Example 4, 3-(5-(3-(1-((7^1S,7^2R,E)-1^1,2^6-dimethyl-3-oxo-5^2,5^3-dihydro-1^1H,5^1H-10-oxa-4-aza-5 (2,1)-benzo[d]imidazola-2 (2,4)-pyridina-1 (4,5)-pyrazola-7 (1,2)-cyclopropanacyclodecaphane-5^6-yl)piperidin-4-yl)-3,8-diazabicyclo[3.2.1]octan-8-yl)-6-methylpyridin-2-yl)piperidine-2,6-dione]",52.5 nM,63.6%,–,–
"Cc1cc2cc(n1)-c1cnn(C)c1OCC[C@H]1C[C@@H]1CN1/C(=N/C2=O)Nc2ccc(N3CC4CCC3CN4C3CCN(c4ccc(C5CCC(=O)NC5=O)nc4C)CC3)cc21 (some centres unmarked) [Example 6, 3-(5-(4-(5-((7^1S,7^2R,E)-1^1,2^6-dimethyl-3-oxo-5^2,5^3-dihydro-1^1H,5^1H-10-oxa-4-aza-5 (2,1)-benzo[d]imidazola-2 (2,4)-pyridina-1 (4,5)-pyrazola-7 (1,2)-cyclopropanacyclodecaphane-5^6-yl)-2,5-diazabicyclo[2.2.2]octan-2-yl)piperidin-1-yl)-6-methylpyridin-2-yl)piperidine-2,6-dione]",17.1 nM,82.2%,–,–
"Cc1cc2cc(n1)-c1cnn(C)c1OCC[C@H]1C[C@@H]1CN1/C(=N/C2=O)Nc2ccc(N3CCN(CC4CN(c5ccc6c(c5)C(C)(C)C(=O)N6C5CCC(=O)NC5=O)C4)CC3)cc21 (some centres unmarked) [Example 13, 3-(5-(3-((4-((7^1S,7^2R,E)-1^1,2^6-dimethyl-3-oxo-5^2,5^3-dihydro-1^1H,5^1H-10-oxa-4-aza-5 (2,1)-benzo[d]imidazola-2 (2,4)-pyridina-1 (4,5)-pyrazola-7 (1,2)-cyclopropanacyclodecaphane-5^6-yl)piperazin-1-yl)methyl)azetidin-1-yl)-3,3-dimethyl-2-oxoindolin-1-yl)piperidine-2,6-dione]",8.09 nM,82.2%,–,–
